# Source: US20230399378A1, “PEPTIDE-BASED DELIVERY OF AGENTS” (THE FLOREY INSTITUTE OF NEUROSCIENCE AND MENTAL HEALTH, priority 2020, published 2023)
# Square brackets hold non-standard residues; d marks the D form. Peptide text beside a SMILES is read from it. * marks the point of attachment. Myristoyl = CCCCCCCCCCCCCC(=O)*; PMO = not defined here; AEEA = NCCOCCOCC(=O)O; Ahx = NCCCCCC(=O)O; Mpa = O=C(O)CCS
# Assays:
# [1] = Serum stability in 50% human serum at 37 °C (RP-HPLC, one-phase decay half-life); conditions: for proteolytic stability compared to the parent L-peptides: 50% human serum, 37° C.; for half-life at 500 µM: human, serum (50% human serum)
# Procedure: Serum stability analysis was conducted for each peptide (7×50 nmol) shown in Table 3 in 50% human serum (100 μL) at 37° C. At the end of each time point (0, 10, 30, 60, 120, 240, and 480 min), 1 M guanidine hydrochloride solution (200 μL) and ice-cold acetonitrile (600 μL) were added, and the serum-peptide solution was centrifuged at 14000 g for 10 min. The supernatant was lyophilised and redissolved in water (200 μL). All samples were analysed by RP-HPLC in the presence of phenol (50 nmol) as an internal standard, using water and acetonitrile containing 0.1% TFA, with a gradient of 10-80% acetonitrile over 30 min, and a flow rate of 1.5 mL/min. The percentage of peptide remaining was measured based on the area under curve. The percentage of peptide remaining versus time data was fitted to a non-linear one-phase exponential decay model in GraphPad Prism 9.2.0 to determine the half-life for each peptide.
# SMN2 = SMN2 splice-switching for exon 7 inclusion by RT-qPCR in SMA Type I patient-derived fibroblasts (Example 2); type: cell-based, human; conditions: FIG. 3B/3C; 0.5 μM and 1 μM
# Source text: FIG. 3. (A) SMN2 pre-mRNA exon-7 skipping and production of 80-90% SMN2Δ7 mRNA transcripts. Peptide-PMO binding to Intron-splicing silencer (ISS-N1) and restoration of SMN2 splicing and production of full-length SMN2 mRNA transcripts. The positions of forward and reverse primers highlighted on full-length mRNA. (B)-(C) Effect of administration of peptides linked to PMO for SMN2 exon 7 inclusion, measured as change in the level of full length SMN2/HPRT1 in SMA patient-derived fibroblasts, each at two concentrations, 0.5 μM and 1 μM (or 1 μM and 5 μM in the case of PMO alone). UT, untreated. (B) For PMO constructs, from left to right: PMO; ApoE(141-150)-PMO; ApoE(133-150)-PMO. (C) For PMO constructs, from left to right: PMO; HA2-PMO; GALA-PMO; NLS-PMO; ApoE(141-150)-PMO; HA2-ApoE(141-150)-PMO; GALA-ApoE(141-150)-PMO; NLS-ApoE(141-150)-PMO; H4-ApoE(141-150)-PMO; A4-ApoE(141-150)-PMO. *P<0.05,**P<0.001, ***P<0.0001 cf. Untreated (control) and PMO (1 and 5 μM); #P<0.001 cf. GALA-/NLS-/H4-ApoE(141-150)-PMO (1 μM), ^<0.001 cf. ApoE(133-150)-PMO (0.5 and 1 μM), ^OP<0.001 cf. ApoE(141-150)-PMO (1 μM), ^&P<0.05 cf.
# The inventors then evaluated cellular uptake and activity of these peptide-PMO conjugates in SMA Type I patient-derived fibroblasts with two copies of SMN2. Efficiency of uptake was assessed by RT-qPCR using SMN2 splice-switching for exon 7 inclusion (see FIG. 3A).
# SMA Type I patient-derived fibroblasts (SMN2^+/+, GM03813, Coriell Cell Repositories) were maintained in Dulbecco's Modified Eagle's Medium (DMEM), supplemented with 10% foetal bovine serum (FBS), 1% Penicillin/Streptomycin and 1% L-glutamine (L-glu) at 37° C. Cells were plated in 6-well plates at a density of 3×10^5/well in 6 well plates one day prior to treatment with PMO and peptide-PMO conjugates. Cells used were from passage 8-22. PMO and the peptide-PMO conjugates were dissolved in nuclease-free water and diluted to appropriate concentrations in Opti-MEM reduced serum medium. Cells were treated for 4 hrs at 37° C. The transfection medium was then removed and replaced with growth medium in which the cells were incubated for 20 hrs.
# Cells were washed with PBS and total cellular RNA was extracted using Trizol (TRI Reagent®, Sigma) according to the manufacturer's instructions (Life Technologies). 400 ng purified RNA was reverse transcribed into cDNA using BioRad iScript Reverse Transcription Supermix kit according to the manufacturer's instructions. The reverse transcription was performed using the Veriti Thermal Cycler (ThermoFisher Scientific) with the thermal cycling conditions: 25° C. for 5 min, 46° C. for 20 min, 95° C. for 1 min followed by a 4° C. holding period.
# Quantitative PCR (20 ng cDNA/well) was carried out in a 96-well plate in triplicate using SsoAdvanced Universal SYBR Green Supermix on a Biorad CFX96 Touch™ Real-Time PCR detection system. The amplification was carried out using full-length SMN2-specific primers: Ex-6 Forward 5′-[…]-3′ (SEQ ID NO:10) and Ex7-8 reverse 5′[…]-3′ (SEQ ID NO:11). Human HPRT1 was used as the internal reference gene with forward primer sequence 5′-[…]-3′ (SEQ ID NO:12) and reverse primer sequence 5′-[…]-3′ (SEQ ID NO:13). The ΔΔCt method was used to correct the Ct values against the HPRT1 Ct values. The values obtained were normalised to the untreated control values which were set to 1. Statistical analysis was carried out using one-way ANOVA with post-hoc Bonferroni for multiple groups comparison (GraphPad Prism V.8, 2018). All data are expressed as mean±SEM from at least three independent experiments with p<0.05 considered significant.
# [2] = test system: SMA patient-derived fibroblasts; assay: Confocal fluorescence uptake of Cy5-labelled peptide-PMO conjugates in SMA fibroblasts; type: cell-based, human; conditions: 1 μM, 1 hr at 37° C.
# Procedure: FIG. 4. Representative confocal fluorescence microscopy images of SMA patient-derived fibroblasts treated with 1 μM of Cy5-labelled: (A) ApoE(141-150)-PMO; (B) HA2-ApoE(141-150)-PMO; (C) ApoE(133-150)-PMO; and (D) HA2-ApoE(133-150)-PMO, for 1 hr at 37° C.
# SMA fibroblasts (6.0×10^4 cells/well) were plated onto a p-Slide 4 Well Ph+ Glass Bottom chamber slides precoated with poly-L-ornithine (Ibidi GmbH). After 24 hr, cells were incubated for 1 hr with Cy5-labelled peptide-PMO conjugates (1 μM or 5 μM) diluted in serum free Opti-MEM. At 10 min to end of 1 hr incubation, Hoechst (1:1000 dilution) was added to each well.
# fibroblasts = assay: Viability of fibroblasts by MTS assay (cytotoxicity); type: cell-based, human
# Procedure: FIG. 5. Effect of the endosomal escape domain HA2 and lipidation of peptide-PMO conjugates on the viability of fibroblasts determined using MTS assay. UT, untreated control.
# The peptide-PMO conjugates were tested up to 10 μM which is 10-fold greater than the concentration needed to achieve a high level of activity.
compound,measurement,setting,value
"CC(C)C[C@@H](NC(=O)[C@@H](CCCNC(=N)N)NC(=O)[C@H](NC(=O)[C@@H](CCCNC(=N)N)NC(=O)[C@@H](CC(C)C)NC(=O)[C@@H](C)NC(=O)[C@@H](CO)NC(=O)[C@@H](Cc1c[nH]cn1)NC(=O)[C@@H](CC(C)C)NC(=O)[C@@H](CCCNC(=N)N)NC(=O)[C@@H](CCCCN)NC(=O)[C@@H](CC(C)C)NC(=O)[C@@H](CCCNC(=N)N)NC(=O)[C@@H](CCCCN)NC(=O)[C@@H](CCCNC(=N)N)NC(=O)[C@@H](CC(C)C)NC(=O)[C@@H](CC(C)C)NC(=O)[C@@H](CCCNC(=N)N)NC(=O)COCCOCCNC(=O)CCS)C(C)C)C(=O)O [RI TPA-ApoE(133-150), TPA-mPEG-rllrkrlkrlhsalrvrl] ([Mpa][AEEA][dR][dL][dL][dR][dK][dR][dL][dK][dR][dL][dH][dS][dA][dL][dR][dV][dR][dL]-OH)",proteolytic stability compared to the parent L-peptides,[1],significantly higher proteolytic stability
same,half-life at 500 µM,[1],11.2 h
"CC[C@@H](C)[C@@H](NC(=O)[C@@H](C)NC(=O)[C@@H](Cc1c[nH]cn1)NC(=O)[C@@H](Cc1ccccc1)NC(=O)[C@H](NC(=O)[C@@H](Cc1c[nH]cn1)NC(=O)CNC(=O)CNC(=O)[C@@H](Cc1c[nH]c2ccccc12)NC(=O)[C@@H](Cc1c[nH]cn1)NC(=O)COCCOCCNC(=O)CCS)[C@H](C)CC)C(=O)N[C@H](C)C(=O)N[C@H](Cc1c[nH]cn1)C(=O)N[C@H](Cc1ccccc1)C(=O)N[C@H](CC(C)C)C(=O)NCC(=O)NCCOCCOCC(=O)N[C@@H](CCCCN)C(=O)NCCOCCOCC(=O)N[C@H](CCCNC(=N)N)C(=O)N[C@H](CC(C)C)C(=O)N[C@H](CC(C)C)C(=O)N[C@H](CCCNC(=N)N)C(=O)N[C@H](CCCCN)C(=O)N[C@H](CCCNC(=N)N)C(=O)N[C@H](CC(C)C)C(=O)N[C@H](CCCCN)C(=O)N[C@H](CCCNC(=N)N)C(=O)N[C@H](CC(C)C)C(=O)N[C@H](Cc1c[nH]cn1)C(=O)N[C@H](CO)C(=O)N[C@H](C)C(=O)N[C@H](CC(C)C)C(=O)N[C@H](CCCNC(=N)N)C(=O)N[C@@H](C(=O)N[C@H](CCCNC(=N)N)C(=O)N[C@H](CC(C)C)C(=O)O)C(C)C [RI TPA-HA2-ApoE(133-150), TPA-mPEG-hwgghifhaiahflg-mPEG-K-mPEG-rllrkrlkrlhsalrvrl] ([Mpa][AEEA][dH][dW]GG[dH][dI][dF][dH][dA][dI][dA][dH][dF][dL]G[AEEA]K[AEEA][dR][dL][dL][dR][dK][dR][dL][dK][dR][dL][dH][dS][dA][dL][dR][dV][dR][dL]-OH)",proteolytic stability compared to the parent L-peptides,[1],significantly higher proteolytic stability
same,half-life at 500 µM,[1],1.6 h
"CC[C@@H](C)[C@@H](NC(=O)[C@@H](C)NC(=O)[C@@H](Cc1c[nH]cn1)NC(=O)[C@@H](Cc1ccccc1)NC(=O)[C@H](NC(=O)[C@@H](Cc1c[nH]cn1)NC(=O)CNC(=O)CNC(=O)[C@@H](Cc1c[nH]c2ccccc12)NC(=O)[C@@H](Cc1c[nH]cn1)NC(=O)COCCOCCNC(=O)CCS)[C@H](C)CC)C(=O)N[C@H](C)C(=O)N[C@H](Cc1c[nH]cn1)C(=O)N[C@H](Cc1ccccc1)C(=O)N[C@H](CC(C)C)C(=O)NCC(=O)NCCOCCOCC(=O)N[C@@H](CCCCN)C(=O)NCCOCCOCC(=O)N[C@H](CCCNC(=N)N)C(=O)N[C@H](CC(C)C)C(=O)N[C@H](CC(C)C)C(=O)N[C@H](CCCNC(=N)N)C(=O)N[C@H](CCCCN)C(=O)N[C@H](CCCNC(=N)N)C(=O)N[C@H](CC(C)C)C(=O)N[C@H](CCCCN)C(=O)N[C@H](CCCNC(=N)N)C(=O)N[C@H](CC(C)C)C(=O)O [RI TPA-HA2-ApoE(141-150), TPA-mPEG-hwgghifhaiahflg-mPEG-K-mPEG-rllrkrlkrl] ([Mpa][AEEA][dH][dW]GG[dH][dI][dF][dH][dA][dI][dA][dH][dF][dL]G[AEEA]K[AEEA][dR][dL][dL][dR][dK][dR][dL][dK][dR][dL]-OH)",half-life at 500 µM,[1],0.4 h
"CC[C@H](C)[C@H](NC(=O)[C@H](C)NC(=O)[C@H](Cc1c[nH]cn1)NC(=O)[C@H](Cc1ccccc1)NC(=O)[C@H](CC(C)C)NC(=O)CNC(=O)COCCOCCNC(=O)CCS)C(=O)N[C@@H](C)C(=O)N[C@@H](Cc1c[nH]cn1)C(=O)N[C@@H](Cc1ccccc1)C(=O)N[C@H](C(=O)N[C@@H](Cc1c[nH]cn1)C(=O)NCC(=O)NCC(=O)N[C@@H](Cc1c[nH]c2ccccc12)C(=O)N[C@@H](Cc1c[nH]cn1)C(=O)NCCOCCOCC(=O)N[C@@H](CC(C)C)C(=O)N[C@@H](CCCNC(=N)N)C(=O)N[C@H](C(=O)N[C@@H](CCCNC(=N)N)C(=O)N[C@@H](CC(C)C)C(=O)N[C@@H](C)C(=O)N[C@@H](CO)C(=O)N[C@@H](Cc1c[nH]cn1)C(=O)N[C@@H](CC(C)C)C(=O)N[C@@H](CCCNC(=N)N)C(=O)N[C@@H](CCCCN)C(=O)N[C@@H](CC(C)C)C(=O)N[C@@H](CCCNC(=N)N)C(=O)N[C@@H](CCCCN)C(=O)N[C@@H](CCCNC(=N)N)C(=O)N[C@@H](CC(C)C)C(=O)N[C@@H](CC(C)C)C(=O)N[C@@H](CCCNC(=N)N)C(=O)O)C(C)C)[C@@H](C)CC [TPA-HA2-ApoE(133-150), TPA-mPEG-GLFHAIAHFIHGGWH-mPEG-LR VRLASHLRKLRKRLLR] ([Mpa][AEEA]GLFHAIAHFIHGGWH[AEEA]LRVRLASHLRKLRKRLLR-OH)",half-life at 500 µM,[1],1.1 h
Ac-LRKLRKRLLR-X-C-PMO [ApoE(141-150)-PMO],"exon-7 inclusion activity, dependence on concentration",SMN2,concentration-dependent increase in activity
same,intracellular fluorescence pattern,[2],punctate intracellular fluorescence pattern
"Myr-GLFHAIAHFIHGGWH-X-LRKLRKRLLR-X-C-PMO ({Myristoyl-Gly-Leu-Phe-H2N-Ala-Ile-Ala-H2N-Phe-Ile-H2N-Gly-Gly-Trp-H2N-Ahx}-LRKLRKRLLR[Ahx]C-{PMO}; reading uncertain; also: printed as Myr-GLFHAIAHFIHGGWH-X-LRKLRKRLLR-X-C-PMO; UniProt P02649 159-168, looked up, fragment) [Myr-HA2-ApoE(141-150)-PMO]",effect on cell viability,fibroblasts; at 10 μM,decrease in cell viability
same,effect on cell viability,fibroblasts; up to 5 μM,None of the P-PMO conjugates had a significant effect on cell viability
Myr-GLFHAIAHFIHGGWH-X-LRVRLASHLRKLRKRLLR-X-C-PMO [Myr-HA2-ApoE(133-150)-PMO],effect on cell viability,fibroblasts; at 10 μM,decrease in cell viability
same,effect on cell viability,fibroblasts; up to 5 μM,None of the P-PMO conjugates had a significant effect on cell viability
